# From patent US8314121B2, “Imidazolone derivatives, preparation thereof as drugs, pharmaceutical compositions, and use thereof as protein kinase inhibitors, in particular CDC7” (Sanofi, priority 2006, dated 2012)
row,Compound,melting point [°C]
1,"O=C1NC(CCc2ccccc2)=N/C1=C\c1c[nH]c2ncccc12 [Example 67, (5Z)-2-(2-Phenylethyl)-5-(1H-pyrrolo[2,3-b]pyridin-3-ylmethylidene)-3,5-dihydro-4H-imidazol-4-one]",270 to 272
2,"CC(C)C1=N/C(=C\c2c[nH]c3ncc(Cl)cc23)C(=O)N1C [Example 82, (5Z)-5-[(5-chloro-1H-pyrrolo[2,3-b]pyridin-3-yl)methylidene]-3-methyl-2-(1-methylethyl)-3,5-dihydro-4H-imidazol-4-one]",282
3,"O=C1NC(CC2CC2)=N/C1=C\c1c[nH]c2ncccc12 [Example 77, (5Z)-2-(cyclopropylmethyl)-5-(1H-pyrrolo[2,3-b]pyridin-3-ylmethylidene)-3,5-dihydro-4H-imidazol-4-one]",289
4,"O=C1NC(N2CCCCCC2)=N/C1=C\c1c[nH]c2ncc(F)cc12 [Example 36, (5Z)-2-azepan-1-yl-5-[(5-fluoro-1H-pyrrolo[2,3-b]pyridin-3-yl)methylidene]-3,5-dihydro-4H-imidazol-4-one]",299
5,"COCCN(C)C1=N/C(=C\c2c[nH]c3ncc(Cl)cc23)C(=O)N1 [Example 95, (5Z)-5-[(5-chloro-1H-pyrrolo[2,3-b]pyridin-3-yl)methylidene]-2-[(2-methoxyethyl)(methyl)amino]-3,5-dihydro-4H-imidazol-4-one]",281
6,"O=C1NC(N2CCCCC2)=N/C1=C\c1c[nH]c2ncc(Cl)cc12 [Example 30, (5Z)-5-[(5-chloro-1H-pyrrolo[2,3-b]pyridin-3-yl)methylidene]-2-piperidin-1-yl-3,5-dihydro-4H-imidazol-4-one]",315 to 320
7,"O=C1NC(N2CCCCCC2)=N/C1=C\c1c[nH]c2ncc(-c3ccccc3)cc12 [Example 42, (5Z)-2-azepan-1-yl-5-[(5-phenyl-1H-pyrrolo[2,3-b]pyridin-3-yl)methylidene]-3,5-dihydro-4H-imidazol-4-one]",302
8,"CCCN1C(=O)/C(=C/c2c[nH]c3ncccc23)N=C1C [Example 87, (5Z)-2-methyl-3-propyl-5-(1H-pyrrolo[2,3-b]pyridin-3-ylmethylidene)-3,5-dihydro-4H-imidazol-4-one]",206
9,"COC1=N/C(=C\c2c[nH]c3ncc(Cl)cc23)C(=O)N1c1ccccc1 [Example 98, (5Z)-5-[1-(5-chloro-1H-pyrrolo[2,3-b]pyridin-3-yl)-methylidene]-2-methoxy-3-phenyl-3,5-dihydro-4H-imidazol-4-one]",227.5
10,"CN1C(=O)/C(=C/c2c[nH]c3ncc(Cl)cc23)N=C1C1CCOCC1 [Example 73, (5Z)-5-[(5-chloro-1H-pyrrolo[2,3-b]pyridin-3-yl)methylidene]-3-methyl-2-(tetrahydro-2H-pyran-4-yl)-3,5-dihydro-4H-imidazol-4-one]",338
11,"N#Cc1cnc2[nH]cc(/C=C3\N=C(NCC4CC4)NC3=O)c2c1 [Example 37, 3-[(Z)-{2-[(cyclopropylmethyl)amino]-5-oxo-1,5-dihydro-4H-imidazol-4-ylidene}methyl]-1H-pyrrolo[2,3-b]pyridine-5-carbonitrile]",335
12,"CC(C)C1=N/C(=C\c2c[nH]c3ncc(Cl)cc23)C(=O)N1 [Example 80, (5Z)-2-(1-methylethyl)-5-(5-chloro-1H-pyrrolo[2,3-b]pyridin-3-ylmethylidene)-3,5-dihydro-4H-imidazol-4-one]",277 to 280
13,"CN(Cc1ccco1)C1=N/C(=C\c2c[nH]c3ncc(Cl)cc23)C(=O)N1 [Example 94, (5Z)-5-[(5-chloro-1H-pyrrolo[2,3-b]pyridin-3-yl)methylidene]-2-[(furan-2-ylmethyl)(methyl)amino]-3,5-dihydro-4H-imidazol-4-one]",315
14,"CSC1=N/C(=C\c2c[nH]c3ncc(Cl)cc23)C(=O)N1 [Example 60, (5Z)-5-[(5-chloro-1H-pyrrolo[2,3-b]pyridin-3-yl)methylidene]-2-(methylsulphanyl)-3,5-dihydro-4H-imidazol-4-one]",> 410
